Assay results taken from patent publication US7750005B2, “Substituted hexahydropyrazino [1,2-A] pyrimidine-4,7-dione derivatives, process for their preparation and their use as medicaments” (Sanofi-Aventis Deutschland GmbH, priority 2003, dated 2010).

Test system: female NMRI mice
Test: Anorectic effect: cumulative condensed milk consumption after oral administration
Assay type: in vivo
Conditions: food withdrawn 24 hours, oral dose 50 mg/kg by gavage
Procedure: The anorectic effect was tested on female NMRI mice. After withdrawal of food for 24 hours, the test product was administered by gavage. The animals were housed singly with free access to drinking water and were offered condensed milk 30 minutes after administration of the product. The condensed milk consumption was determined every half hour for 7 hours, and the general wellbeing of the animals was observed. The measured milk consumption was compared with the vehicle-treated control animals.

## COc1ccc(Cl)cc1S(=O)(=O)N1CCC(=O)N2C(Cc3ccc(Cl)cc3)C(=O)N(C(C)C)CC21 (centres unmarked) [Example 2, 6-(4-Chlorobenzyl)-1-(5-chloro-2-methoxybenzenesulfonyl)-8-isopropylhexahydropyrazino[1,2-a]pyrimidine-4,7-dione]
Milk consumption over 7 hours
  Reduction in the cumulative milk consumption as % of the control: 11 % of the control
Over 7 hours, N=10, control animals 5.48 ml
  cumulative milk consumption of the treated animals: 10/4.90 ml
